Source: ChEMBL document CHEMBL1159329, “Microbial transformations of isosteviol” (2002)

Tested on: Rattus norvegicus
Experiment: Antihypertensive activity in deoxy-corticosterone acetate-induced Sprague-Dawley rat assessed as reduction of blood pressure at 4.8 mg/kg, iv
Assay type: functional

SMILES | Activity [mmHg]
C[C@@]12CC[C@@H]3[C@@](CC[C@H]4[C@@]3(C)CCC[C@@]4(C)C(=O)O)(CC1=O)C2 [ISOSTEVIOL] | 12
C[C@@]12CC[C@]3(O)[C@@](CC[C@@H]4[C@](C)(C(=O)O)CCC[C@]43C)(CC1=O)C2 | 7
